Common to all, as to test: Bliss interaction score (quartile over a dose matrix) (fitness difference); higher = more antagonism (negative = synergy)
In one test the test system is S. pneumoniae D39V. In short, it runs like this:
(§1)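 Quartiles summarise the Bliss score over technical, biological and donor/recipient replicates, where the score is observed minus expected fitness under a product model. Expected fitness uses single-drug values inferred from combination data. Fitness is OD595 at entry into stationary phase over the plate's robust no-drug mean, capped at 1.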

Another test deals with S. aureus Newman. In short, it runs like this: as §1
Another test concerns B. subtilis 168. Put shortly: as §1
The next test deals with S. aureus DSM 20231. Put shortly: as §1
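Also: first quartile when negative (synergy) and third quartile when positive (antagonism).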

For the molecule `CN(C)[C@@H]1C(O)=C(C(N)=O)C(=O)[C@@]2(O)C(O)=C3C(=O)c4c(O)ccc(Cl)c4[C@@](C)(O)[C@H]3C[C@@H]12` [Clortetracycline] + CCC[C@@H]1C[C@@H](C(=O)N[C@@H]([C@H]2O[C@H](SC)[C@H](O)[C@@H](O)[C@H]2O)[C@@H](C)O)N(C)C1 [Lincomycin], the Bliss interaction score with S. pneumoniae D39V was 0.036; in the test on S. aureus Newman, -0.144; in the test with B. subtilis 168 it was 0.103; in the test on S. aureus DSM 20231, -0.171.
For `CN(C)[C@@H]1C(O)=C(C(N)=O)C(=O)[C@@]2(O)C(O)=C3C(=O)c4c(O)ccc(Cl)c4[C@@](C)(O)[C@H]3C[C@@H]12` [Clortetracycline] + CCN(CC)CCOC(=O)c1ccc(N)cc1 [Procaine] the same measures were -0.0498, 0.0501, 0.0759 and -0.0714.
For `CN(C)[C@@H]1C(O)=C(C(N)=O)C(=O)[C@@]2(O)C(O)=C3C(=O)c4c(O)ccc(Cl)c4[C@@](C)(O)[C@H]3C[C@@H]12` [Clortetracycline] + CC[C@H]1OC(=O)[C@H](C)C(=O)[C@H](C)[C@@H](O[C@@H]2O[C@H](C)C[C@H](N(C)C)[C@H]2O)[C@](C)(OC)C[C@@H](C)C(=O)[C@H](C)[C@H]2N(CCCCn3cnc(-c4cccnc4)c3)C(=O)O[C@]12C [Telithromycin] the same measures were -0.0824, -0.101, -0.372 and -0.0731.
For `CN(C)[C@@H]1C(O)=C(C(N)=O)C(=O)[C@@]2(O)C(O)=C3C(=O)c4c(O)ccc(Cl)c4[C@@](C)(O)[C@H]3C[C@@H]12` [Clortetracycline] + CC[C@H]1OC(=O)[C@H](C)[C@@H](O[C@H]2C[C@@](C)(OC)[C@@H](O)[C@H](C)O2)[C@H](C)[C@@H](O[C@@H]2O[C@H](C)C[C@H](N(C)C)[C@H]2O)[C@](C)(O)C[C@@H](C)C(=O)[C@H](C)[C@@H](O)[C@]1(C)O [Erythromycin] the same measures were 0.0677, -0.0583, -0.214 and -0.118.
Regarding `CN(C)[C@@H]1C(O)=C(C(N)=O)C(=O)[C@@]2(O)C(O)=C3C(=O)c4c(O)ccc(Cl)c4[C@@](C)(O)[C@H]3C[C@@H]12` [Clortetracycline] + CN1C2=CC=CC=C2N=C3C1=CC=CC3=O [Pyocyanin], the Bliss interaction score in the test with S. pneumoniae D39V was -0.0238; in the test with S. aureus Newman, -0.0515; with B. subtilis 168 it was 0.0851; in the test with S. aureus DSM 20231, 0.0397.
In the same order, the values of `CN(C)[C@@H]1C(O)=C(C(N)=O)C(=O)[C@@]2(O)C(O)=C3C(=O)c4c(O)ccc(Cl)c4[C@@](C)(O)[C@H]3C[C@@H]12` [Clortetracycline] + CN(C)C(=O)C(CCN1CCC(O)(c2ccc(Cl)cc2)CC1)(c1ccccc1)c1ccccc1 [Loperamide] are 0.0856, -0.0458, -0.221 and 0.0792.
For `CN(C)[C@@H]1C(O)=C(C(N)=O)C(=O)[C@@]2(O)C(O)=C3C(=O)c4c(O)ccc(Cl)c4[C@@](C)(O)[C@H]3C[C@@H]12` [Clortetracycline] + CN(C)c1cc(NC(=O)CNC(C)(C)C)c(O)c2c1C[C@H]1C[C@H]3[C@H](N(C)C)C(O)=C(C(N)=O)C(=O)[C@@]3(O)C(O)=C1C2=O [Tigecycline] the same measures were -0.0325, -0.0522, 0.0768 and -0.14.
For `CN(C)[C@@H]1C(O)=C(C(N)=O)C(=O)[C@@]2(O)C(O)=C3C(=O)c4c(O)ccc(Cl)c4[C@@](C)(O)[C@H]3C[C@@H]12` [Clortetracycline] + CN(N=O)C(=O)N[C@@H](C=O)[C@@H](O)[C@H](O)[C@H](O)CO [Streptozotocin] the same measures were -0.0534, 0.0347, 0.073 and 0.0625.
`CN(C)[C@@H]1C(O)=C(C(N)=O)C(=O)[C@@]2(O)C(O)=C3C(=O)c4c(O)ccc(Cl)c4[C@@](C)(O)[C@H]3C[C@@H]12` [Clortetracycline] + CN[C@@H]1[C@H](O)[C@H](NC)[C@H]2O[C@@]3(O)C(=O)C[C@@H](C)O[C@H]3O[C@@H]2[C@H]1O [Spectinomycin]: the Bliss interaction score was 0.0439 with S. pneumoniae D39V, -0.0716 in the test with S. aureus Newman, -0.0478 in the test with B. subtilis 168 and -0.0598 with S. aureus DSM 20231.
For the molecule `CN(C)[C@@H]1C(O)=C(C(N)=O)C(=O)[C@@]2(O)C(O)=C3C(=O)c4c(O)ccc(Cl)c4[C@@](C)(O)[C@H]3C[C@@H]12` [Clortetracycline] + CN[C@@H]1[C@H](O[C@H]2[C@H](O[C@H]3[C@H](O)[C@@H](O)[C@H](N=C(N)N)[C@@H](O)[C@@H]3N=C(N)N)O[C@@H](C)[C@]2(O)C=O)O[C@@H](CO)[C@H](O)[C@H]1O [Streptomycin], the Bliss interaction score in the test with S. pneumoniae D39V was -0.0408; with S. aureus Newman it was -0.0515; in the test with B. subtilis 168 it was 0.156; with S. aureus DSM 20231, -0.0487.
For `CN(C)[C@@H]1C(O)=C(C(N)=O)C(=O)[C@@]2(O)C(O)=C3C(=O)c4c(O)ccc(Cl)c4[C@@](C)(O)[C@H]3C[C@@H]12` [Clortetracycline] + CN[C@H](CC(C)C)C(=O)N[C@H]1C(=O)N[C@@H](CC(N)=O)C(=O)N[C@H]2C(=O)N[C@H]3C(=O)N[C@H](C(=O)N[C@H](C(=O)O)c4cc(O)cc(O)c4-c4cc3ccc4O)[C@H](O)c3ccc(c(Cl)c3)Oc3cc2cc(c3O[C@@H]2O[C@H](CO)[C@@H](O)[C@H](O)[C@H]2O[C@H]2C[C@](C)(N)[C@H](O)[C@H](C)O2)Oc2ccc(cc2Cl)[C@H]1O [Vancomycin] the same measures were 0.0542, 0.0562, -0.0454 and -0.0315.
In the same order, the values of `CN(C)[C@@H]1C(O)=C(C(N)=O)C(=O)[C@@]2(O)C(O)=C3C(=O)c4c(O)ccc(Cl)c4[C@@](C)(O)[C@H]3C[C@@H]12` [Clortetracycline] + CN[C@H](CC(C)C)C(=O)N[C@H]1C(=O)N[C@@H](CC(N)=O)C(=O)N[C@H]2C(=O)N[C@H]3C(=O)N[C@H](C(=O)N[C@H](C(=O)O)c4cc(O)cc(O)c4-c4cc3ccc4O)[C@H](O[C@H]3C[C@](C)(N)[C@@H](O)[C@H](C)O3)c3ccc(c(Cl)c3)Oc3cc2cc(c3O[C@@H]2O[C@H](CO)[C@@H](O)[C@H](O)[C@H]2O[C@H]2C[C@](C)(NCc3ccc(-c4ccc(Cl)cc4)cc3)[C@@H](O)[C@H](C)O2)Oc2ccc(cc2Cl)[C@H]1O [Oritavancin] are 0.073, 0.0708, -0.0243 and -0.0292.
For `CN(C)[C@@H]1C(O)=C(C(N)=O)C(=O)[C@@]2(O)C(O)=C3C(=O)c4c(O)ccc(Cl)c4[C@@](C)(O)[C@H]3C[C@@H]12` [Clortetracycline] + CO[C@@H]1[C@@H](OC(N)=O)[C@@H](O)[C@H](Oc2ccc3c(O)c(NC(=O)c4ccc(O)c(CC=C(C)C)c4)c(=O)oc3c2C)OC1(C)C [Novobiocin] the same measures were 0.192, 0.0791, 0.0909 and 0.104.

(Values after the supplement of paper PMC10627819.)
